Measurements reported in the supplement of paper PMC10307832.

Assays:
Assay in all cases: relative viability (nuclei count vs DMSO), 5 days (fraction); higher = more cells survive
[1] = compound: C/C(=N\NC(=S)N1CCC1)/C2=CC=CC=N2 + CC1(C)CCC(c2ccc(Cl)cc2)=C(CN2CCN(c3ccc(C(=O)NS(=O)(=O)c4ccc(N[C@H](CCN5CCOCC5)CSc5ccccc5)c(S(=O)(=O)C(F)(F)F)c4)cc3)CC2)C1 [Navitoclax] (partner 0.5 µM)
How it was run: (§1)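 Relative viability was taken as the ratio of nuclei in treated wells to nuclei in vehicle wells. Lung cancer cell lines in 1536-well plates received compounds by pin tool one day after seeding, either one drug alone or a fixed anchor-drug dose plus five library-drug doses (not always all listed) in √10 steps. Nuclei were counted on 4× images after 5 days of treatment, and values are medians of duplicate plates.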

[2] = compound: C/C(=N\NC(=S)N1CCC1)/C2=CC=CC=N2 + CCNC(=O)c1noc(-c2cc(C(C)C)c(O)cc2O)c1-c1ccc(CN2CCOCC2)cc1 [Luminespib] (partner 0.01 µM)
How it was run: as §1

[3] = compound: C/C(=N\NC(=S)N1CCC1)/C2=CC=CC=N2 + COc1cc2c(Oc3ccc(NC(=O)C4(C(=O)Nc5ccc(F)cc5)CC4)cc3F)ccnc2cc1OCCCN1CCOCC1 [Foretinib] (partner 0.25 µM)
How it was run: as §1

[4] = compound: C/C(=N\NC(=S)N1CCC1)/C2=CC=CC=N2 + C[C@]1(O)C[C@@H](c2nc(-c3ccc4ccc(-c5ccccc5)nc4c3)c3c(N)nccn32)C1 [Linsitinib] (partner 1 µM)
How it was run: as §1

| Cell Line | relative viability ([1]; first compound 0.05 µM) | relative viability ([1]; first compound 0.1581 µM) | relative viability ([1]; first compound 0.5 µM) | relative viability ([1]; first compound 1.581 µM) | relative viability ([1]; first compound 5 µM) | relative viability ([2]; first compound 0.05 µM) | relative viability ([2]; first compound 0.1581 µM) | relative viability ([2]; first compound 0.5 µM) | relative viability ([2]; first compound 1.581 µM) | relative viability ([2]; first compound 5 µM) | relative viability ([3]; first compound 0.05 µM) | relative viability ([3]; first compound 0.1581 µM) | relative viability ([3]; first compound 0.5 µM) | relative viability ([3]; first compound 1.581 µM) | relative viability ([3]; first compound 5 µM) | relative viability ([4]; first compound 0.05 µM) | relative viability ([4]; first compound 0.1581 µM) | relative viability ([4]; first compound 0.5 µM) | relative viability ([4]; first compound 1.581 µM) | relative viability ([4]; first compound 5 µM) |
| --- | --- | --- | --- | --- | --- | --- | --- | --- | --- | --- | --- | --- | --- | --- | --- | --- | --- | --- | --- | --- |
| PC-3 [JPC-3] | 0.42 | 0.855 | 0.281 | 0.253 | 0.285 | 0.354 | 0.415 | 0.257 | 0.232 | 0.216 | 0.518 | 0.525 | 0.349 | 0.259 | 0.242 | 0.647 | 0.973 | 0.469 | 0.313 | 0.311 |
| PC-14 | 0.0569 | 0.0561 | 0.0604 | 0.061 | 0.0618 | 0.104 | 0.126 | 0.112 | 0.0879 | 0.095 | 0.141 | 0.113 | 0.129 | 0.0971 | 0.0805 | 0.0952 | 0.125 | 0.12 | 0.0874 | 0.117 |
| RERF-LC-KJ | 0.184 | 0.266 | 0.245 | 0.159 | 0.227 | 0.343 | 0.306 | 0.272 | 0.265 | 0.294 | 0.292 | 0.261 | 0.297 | 0.28 | 0.259 | 0.233 | 0.253 | 0.227 | 0.243 | 0.229 |
| SK-LU-1 | 0.183 | 0.167 | 0.148 | 0.124 | 0.112 | 0.154 | 0.133 | 0.176 | 0.156 | 0.178 | 0.214 | 0.19 | 0.221 | 0.149 | 0.172 | 0.274 | 0.231 | 0.224 | 0.202 | 0.21 |
| SK-MES-1 | 0.186 | 0.21 | 0.18 | 0.13 | 0.185 | 0.169 | 0.155 | 0.175 | 0.152 | 0.189 | 0.201 | 0.257 | 0.223 | 0.166 | 0.238 | 0.269 | 0.236 | 0.225 | 0.205 | 0.183 |
| SW 1573 | 0.138 | 0.0732 | 0.0916 | 0.0833 | 0.0479 | 0.0763 | 0.116 | 0.104 | 0.0921 | 0.0745 | 0.146 | 0.155 | 0.128 | 0.142 | 0.0856 | 0.0916 | 0.123 | 0.113 | 0.152 | 0.0935 |
| UMC-11 | 0.16 | 0.138 | 0.119 | 0.116 | 0.106 | 0.207 | 0.194 | 0.199 | 0.184 | 0.176 | 0.249 | 0.212 | 0.223 | 0.183 | 0.185 | 0.369 | 0.238 | 0.205 | 0.169 | 0.161 |
